# Test results from US20250352612A1, “PHARMACEUTICAL AGENT TO PREVENT THE ADVERSE EFFECTS OF ROTAVIRUS NSP4 PROTEIN” (priority 2022, published 2025).
# Tests used:
# Assay type in all cases: cell-based
# [1] = system: intestinal cell line; assay: Intracellular calcium amount after NSP4 and PlnA administration in intestinal cell line; settings: co-administration of NSP4 and PlnA-containing agent
# Excerpt: In an exemplary embodiment of the pharmaceutical agent developed with the present invention, a pharmaceutical agent containing the Lactobacillus plantarum bacteriocin Plantaricin A (PlnA) is used to reduce the intracellular calcium content of the rotavirus NSP4 protein in the intestinal cell line. Thus, the amount of intracellular calcium increased by the NSP4 protein is reduced and, therefore, cell death and ER disruption caused by rotavirus through apoptosis is prevented by this strategy.
# [2] = system: IL-10; assay: IL-10 protein levels after NSP4 and PlnA administration; settings: NSP4 and PlnA-containing agent; for increase of IL-10 protein levels compared to the control group without any application: Graph 3
# [3] = system: IL-10; assay: IL-10 mRNA levels (gene expression) after NSP4 and PlnA administration; settings: NSP4 and PlnA containing agent together, Graph 5
substance,measurement,setting,value
Plantaricin A [PlnA-containing pharmaceutical agent],decrease of amount of intracellular calcium compared to the NSP4-treated first group,"[1]; 6th hour, Graph 1",3.75 fold
same,decrease of amount of intracellular calcium compared to the control group,"[1]; 6th hour, Graph 1",1.64 fold
same,amount of intracellular calcium compared to the control group,"[1]; 12 hours, Graph 2",the same amount of calcium was observed in the control group
same,decrease of amount of intracellular calcium compared to the first group administered NSP4,"[1]; 12 hours, Graph 2",2.67 times
same,increase of IL-10 protein levels compared to the control group without any application,[2]; 3rd hour,2 fold
same,increase of IL-10 protein levels compared to the control group without any application,[2]; 6th hour,1.43 fold
same,IL-10 protein levels compared to the control group,"[2]; 12 hours, Graph 4",no significant difference
same,increase of IL-10 protein levels compared to the control group,"[2]; 24 hours, Graph 4",1.13 fold
same,increase of IL-10 mRNA level compared to the control group,[3]; 12th hour,0.68 fold
same,NSP4-induced suppression of IL-10 gene expression,[3],this suppression was reduced
